# Reference: patent US20230020507A1, “COMPOUND AND USE THEREOF IN TREATING AUTOIMMUNE DISEASES” (PARENCHYMA BIOTECH INC., priority 2019, published 2023)
# Legend:
# [1] = tested on: C57BL/6 mice with DSS-induced inflammatory bowel disease; assay: DSS-induced inflammatory bowel disease model, severity index and colon weight:length ratio; format: in vivo, mouse; conditions: 20 mg/kg oral daily, compared to solvent control
# Description: The 1.5% DSS solution was changed at an interval of 2 days. Sterile distilled water was provided for drinking from the 8th day of the experiment. Body weight and severity index were measured at an interval of 2 days from the 0th day of the experiment in order to confirm the onset of inflammatory bowel disease.
# 20 mg/kg of the compound per mouse was completely dissolved in DMSO corresponding to 10% (v/v) of the administered dose, and then diluted in a cremophor EL-phosphate buffered saline mixture in order to produce the final DMSO:Cremophor EL:phosphate buffered saline (1:1:8, v/v/v), followed by oral administration of 200 μl daily for a total of 10 times from the 2nd to 11th days of the experiment. An inflammatory bowel disease severity index was visually observed and recorded at an interval of 2 days according to a severity index system classified into 0 to 10 levels.
# Inflammatory bowel disease symptoms were evaluated by summing the scores of three items according to the following items (Table 3).
# [2] = tested on: C57BL/6 mice with DSS-induced inflammatory bowel disease; assay: Mucosal healing (intestinal epithelial barrier integrity) with FITC-dextran in DSS mice; format: in vivo, mouse; parameters: dose or concentration left out as unconfirmed; conditions: oral daily 2nd to 9th day, 10th day, 4 hours after FITC-dextran, compared to solvent control
# Excerpt: The 1.5% DSS solution was changed at an interval of 2 days. Sterile distilled water was provided for drinking from the 8th day of the experiment.
# [3] = tested on: AOM/DSS-induced colon cancer in C57BL/6 mice; assay: AOM/DSS-induced colon cancer mouse model, number of tumors per colon; format: in vivo; conditions: 20 mg/kg oral daily 7th to 21st day, 93rd day, solvent control 11.33±4.33
# Excerpt: Sterile distilled water was provided for drinking from the 8th day of the experiment.
# [4] = tested on: IL-6, IL-17A and IL-10 expression in lung tissue; assay: mRNA expression of IL-6, IL-17A and IL-10 in lung tissue of GVHD mice (real-time PCR); format: in vivo, mouse; conditions: 20 mg/kg i.p., 15th day, compared to solvent control
# Excerpt: On the 15th day of the experiment, the lungs of the mice were excised to prepare an mRNA sample. In order to extract mRNA, the […] was ground with a homogenizer to obtain a homogeneous suspension. […] Then, cDNA was synthesized from the isolated RNA by reverse transcription, and the expression of inflammatory cytokines was confirmed through real-time polymerase chain reaction (PCR) using iQ SYBR-Green Supermix (Bio-rad) in the CFX96 (Bio-rad) detection system. Relative values of the enzyme expression levels were compared by the ΔΔct method using GAPDH as a control enzyme. Herein, one (1) fold was set using the normal mouse […] as a control.
# The real-time polymerase chain reaction was implemented under the conditions of cycles at an annealing temperature of 58° C., and the following primer sequences were used.
structure (smiles),measurement,setting,value
"O=C(Cc1c[nH]c2ccc(Cl)cc12)Nc1ccc(Cl)c(F)n1 [Compound 26, 2-(5-chloro-1H-indol-3-yl)-N-(5-chloro-6-fluoropyridin-2-yl)acetamide]",inflammatory bowel disease severity index,"[1]; 2nd to 11th day, 10th day of the experiment",statistically significant therapeutic effects
same,colon weight:length ratio (intestinal inflammation),[1]; 15th day of the experiment,significantly suppressed
same,Serum FITC-dextran,[2],significantly reduced
same,number of tumors in the colon,[3],3.17±1.17
same,expression level of IL-6 in lung tissue,[4],significantly reduced
same,expression level of IL-10 in lung tissue,[4],significantly increased
same,expression level of IL-17A in lung tissue,[4],significantly reduced
